Experimental data as given in patent US10829520B2, “Beta-hairpin peptidomimetics” (POLYPHOR AG, priority 2015, dated 2020).
Where a SMILES comes first, the peptide text is derived from it. Bridges are numbered along the chain shown (N, C = ends). Roman numbers before positions name the chains, in order. [ ]: non-standard residue; d: D form. NMeDab = CN[C@@H](CCN)C(=O)O; Tle = CC(C)(C)[C@H](N)C(=O)O; dDab = NCC[C@@H](N)C(=O)O; Nle = CCCC[C@H](N)C(=O)O; Orn = NCCC[C@H](N)C(=O)O; Dab = NCC[C@H](N)C(=O)O; Dap = NC[C@H](N)C(=O)O

Columns and labels:
Assay type in all cases: cell-based
[1] = tested on: human red blood cells (hRBC); assay: Hemolysis of human red blood cells; conditions: red cells of human, 1 h
How it was run: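 Percent lysis of washed human erythrocytes after 1 h at 37° C. with 100 μg/mL peptide, calculated from OD540 of 8-fold diluted supernatant as a fraction of the 2.5% Triton X-100 value.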

[2] = tested on: Pseudomonas aeruginosa ATCC 27853; conditions: ATCC 27853
How it was run: (§1)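 Broth microdilution per CLSI, cation-adjusted MH-II medium, 0.002% (v/v) polysorbate 80 final. Approx. 10^6 CFU/mL inoculum, incubated 35° C for 18-20 h; MIC read as absence of visible growth.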

[3] = tested on: Acinetobacter baumannii DSM 30008; conditions: DSM 30008
How it was run: as §1

[4] = tested on: Klebsiella pneumoniae 968733; conditions: 968733
[5] = tested on: Escherichia coli ATCC 25922; conditions: ATCC 25922
How it was run: as §1

[6] = tested on: Acinetobacter baumannii 872842; conditions: 872842
[7] = tested on: Klebsiella pneumoniae SSI #3010; conditions: SSI #3010
How it was run: as §1

Escherichia coli 926415 = conditions: 926415

SMILES | Hemolysis at 100 μg/mL ([1]; 100 μg/mL) | Pseudomonas aeruginosa ATCC 27853 MIC [2] | Acinetobacter baumannii DSM 30008 MIC [3] | Klebsiella pneumoniae 968733 MIC [4] | Escherichia coli ATCC 25922 MIC [5] | Acinetobacter baumannii 872842 MIC [6] | Klebsiella pneumoniae SSI #3010 MIC [7] | Escherichia coli 926415 MIC (Escherichia coli 926415) | Hemolysis at 100 μg/mL [1]; 100
CC(=O)N[C@@H](Cc1c[nH]c2ccccc12)C(=O)N[C@H]1CSSC[C@@H](C(=O)N[C@@H](CCCN)C(=O)N[C@H](C(=O)N[C@@H](CCN)C(=O)N[C@@H](CCN)C(=O)N[C@H]2CCNC(=O)[C@H]([C@@H](C)O)NC(=O)[C@H](CCN)NC(=O)[C@H](CCN)NC(=O)[C@H](CC(C)C)NC(=O)[C@@H](Cc3ccccc3)NC(=O)[C@H](CCN)NC2=O)[C@@H](C)O)NC(=O)[C@H](Cc2ccc(O)cc2)NC(=O)[C@H](CC(=O)O)NC(=O)[C@H](CC(C)C)NC(=O)[C@@H]2CCCN2C(=O)[C@H]2CCCN2C(=O)[C@H](CO)NC(=O)[C@H](Cc2ccc(O)cc2)NC(=O)[C@H](C(C)(C)C)NC1=O [Ex. 146] (Ac-WC[Tle]YS[dP]PLDYC[Orn]T[Dab][Dab][Dab][Dab][dF]L[Dab][Dab]T; disulfide 2-11; lactam 16-C) | 3% | 0.5 µg/mL | 0.125 µg/mL | 4 µg/mL | 0.25 µg/mL | 1 µg/mL | 0.25 µg/mL | 4 µg/mL | 
CCCC[C@@H]1NC(=O)[C@@H]2CCCN2C(=O)[C@H]2CCCN2C(=O)[C@H](CO)NC(=O)[C@H](C)NC(=O)[C@H](C(C)(C)C)NC(=O)[C@H](CCN)NC(=O)[C@H](Cc2c[nH]c3ccccc23)NC(=O)[C@@H](NC(C)=O)CSSC[C@@H](C(=O)N[C@H](CCN)C(=O)N[C@H]2CCNC(=O)[C@H]([C@@H](C)O)NC(=O)[C@H](CCN)NC(=O)[C@H](CCN)NC(=O)[C@H](CC(C)C)NC(=O)[C@@H](Cc3ccccc3)NC(=O)[C@H](CCN)NC2=O)NC(=O)[C@H](CCCN)NC(=O)[C@H](CCN)NC(=O)[C@H](Cc2ccc(O)cc2)NC(=O)[C@H](CO)NC1=O [Ex. 60] (Ac-CW[Dab][Tle]AS[dP]P[Nle]SY[Dab][Orn]C[dDab][Dab][Dab][dF]L[Dab][Dab]T; disulfide 1-14; lactam 16-C) | <1% | 0.5 µg/mL | 1 µg/mL | 1 µg/mL | 0.0625 µg/mL | 1 µg/mL | 0.25 µg/mL | 0.25 µg/mL | 
CC(C)C[C@@H]1NC(=O)[C@@H](CC(C)C)NC(=O)[C@H](CCN)NC(=O)[C@@H](NC(=O)[C@H](CCN)NC(=O)[C@@H](NC(=O)[C@H](CCN)NC(=O)CC[C@@H]2NC(=O)CNC(=O)[C@H](CCCN)NC(=O)[C@H](CCN)NC(=O)[C@H](Cc3ccc(O)cc3)NC(=O)[C@H](CO)NC(=O)[C@H](CC(C)C)NC(=O)[C@@H]3CCCN3C(=O)[C@H]3CCCN3C(=O)[C@H](CO)NC(=O)[C@H]([C@@H](C)O)NC(=O)[C@H](C(C)C)NC(=O)[C@H](CCN)NC(=O)[C@H](Cc3c[nH]c4ccccc34)NC2=O)[C@@H](C)O)CCNC(=O)[C@H]([C@@H](C)O)NC(=O)[C@H](CCN)NC(=O)[C@H](CCN)NC1=O [Ex. 94] (I: cyclo(LSY[Dab][Orn]GEW[Dab]VTS[dP]P) / II: [Dab]T[Dab][Dab][Dab][dL]L[Dab][Dab]T; amide I:7-II:N; lactam II:4-II:C) |  | 0.25 µg/mL | 0.0625 µg/mL | 0.5 µg/mL | 0.0625 µg/mL | 0.25 µg/mL | 0.125 µg/mL | 1 µg/mL | 1%
CC(=O)N[C@@H](Cc1c[nH]c2ccccc12)C(=O)N[C@H]1CSSC[C@@H](C(=O)N[C@@H](CCCN)C(=O)N[C@H](C(=O)N[C@@H](CCN)C(=O)N[C@@H](CCN)C(=O)N[C@H]2CCNC(=O)[C@H]([C@@H](C)O)NC(=O)[C@H](CCN)NC(=O)[C@H](CCN)NC(=O)[C@H](CC(C)C)NC(=O)[C@@H](Cc3ccccc3)NC(=O)[C@H](CCN)NC2=O)[C@@H](C)O)NC(=O)[C@H](Cc2ccc(O)cc2)NC(=O)[C@H](CO)NC(=O)[C@H](CC(C)C)NC(=O)[C@@H]2CCCN2C(=O)[C@H]2CCCN2C(=O)[C@H](CN)NC(=O)[C@H](C)NC(=O)[C@H](C(C)(C)C)NC1=O [Ex. 142] (Ac-WC[Tle]A[Dap][dP]PLSYC[Orn]T[Dab][Dab][Dab][Dab][dF]L[Dab][Dab]T; disulfide 2-11; lactam 16-C) | <1% | 0.25 µg/mL | 0.25 µg/mL | 1 µg/mL | 0.5 µg/mL | 0.125 µg/mL | 0.5 µg/mL | 0.25 µg/mL | 
CC(C)C[C@@H]1NC(=O)[C@@H](CC(C)C)NC(=O)[C@H](CCN)NC(=O)[C@@H](NC(=O)[C@H](CCN)NC(=O)[C@@H](NC(=O)[C@H](CCN)N(C)C(=O)CC[C@@H]2NC(=O)[C@H](CCN)NC(=O)[C@H](Cc3ccc(O)cc3)NC(=O)[C@H](CO)NC(=O)[C@H](CC(C)C)NC(=O)[C@@H]3CCCN3C(=O)[C@H]3CCCN3C(=O)[C@H](CO)NC(=O)[C@H]([C@@H](C)O)NC(=O)[C@H](C(C)C)NC(=O)[C@H](CCN)NC(=O)[C@H](Cc3c[nH]c4ccccc34)NC(=O)[C@H](CCN)NC(=O)[C@@H](CCN)NC2=O)[C@@H](C)O)CCNC(=O)[C@H]([C@@H](C)O)NC(=O)[C@H](CCN)NC(=O)[C@H](CCN)NC1=O [Ex. 89] (I: cyclo(LSY[Dab]E[dDab][Dab]W[Dab]VTS[dP]P) / II: [NMeDab]T[Dab][Dab][Dab][dL]L[Dab][Dab]T; amide I:5-II:N; lactam II:4-II:C) |  | 0.25 µg/mL | 0.125 µg/mL | 0.5 µg/mL | 0.125 µg/mL | 1 µg/mL | 0.25 µg/mL | 1 µg/mL | 1%
CCCC[C@@H]1NC(=O)[C@@H]2CCCN2C(=O)[C@H]2CCCN2C(=O)[C@H](CO)NC(=O)[C@H](C)NC(=O)[C@H](C(C)(C)C)NC(=O)[C@@H](NC(=O)[C@H](Cc2c[nH]c3ccccc23)NC(C)=O)CSSC[C@@H](C(=O)N[C@@H](CCN)C(=O)N[C@H](C(=O)N[C@@H](CCN)C(=O)NCC(=O)N[C@H]2CCNC(=O)[C@H]([C@@H](C)O)NC(=O)[C@H](CCN)NC(=O)[C@H](CCN)NC(=O)[C@H](CC(C)C)NC(=O)[C@@H](Cc3ccccc3)NC(=O)[C@H](CCN)NC2=O)[C@@H](C)O)NC(=O)[C@H](Cc2ccc(O)cc2)NC(=O)[C@H](CO)NC1=O [Ex. 33] (Ac-WC[Tle]AS[dP]P[Nle]SYC[Dab]T[Dab]G[Dab][Dab][dF]L[Dab][Dab]T; disulfide 2-11; lactam 16-C) | 1% | 0.5 µg/mL | 0.125 µg/mL | 0.75 µg/mL | 0.25 µg/mL | 0.25 µg/mL | 0.5 µg/mL | 1 µg/mL | 
CCCC[C@@H]1NC(=O)[C@@H]2CCCN2C(=O)[C@H]2CCCN2C(=O)[C@H](CO)NC(=O)[C@H](C)NC(=O)[C@H](C(C)(C)C)NC(=O)[C@H](CCN)NC(=O)[C@H](Cc2c[nH]c3ccccc23)NC(=O)[C@H](CCN)NC(=O)[C@@H](CCN)NC(=O)[C@H](CC(=O)N[C@H](CCN)C(=O)N[C@H]2CCNC(=O)[C@H]([C@@H](C)O)NC(=O)[C@H](CCN)NC(=O)[C@H](CCN)NC(=O)[C@H](CC(C)C)NC(=O)[C@@H](Cc3ccccc3)NC(=O)[C@H](CCN)NC2=O)NC(=O)[C@H](CCN)NC(=O)[C@H](Cc2ccc(O)cc2)NC(=O)[C@H](CO)NC1=O [Ex. 66] (I: cyclo([Nle]SY[Dab]D[dDab][Dab]W[Dab][Tle]AS[dP]P) / II: [dDab][Dab][Dab][dF]L[Dab][Dab]T; amide I:5-II:N; lactam II:2-II:C) |  | 1 µg/mL | 1 µg/mL | 2 µg/mL | 0.25 µg/mL | 4 µg/mL | 1 µg/mL | 2 µg/mL | 1%
CCCC[C@@H]1NC(=O)[C@@H]2CCCN2C(=O)[C@H]2CCCN2C(=O)[C@H](CO)NC(=O)[C@H](C)NC(=O)[C@H](C(C)(C)C)NC(=O)[C@H](CCN)NC(=O)[C@H](Cc2c[nH]c3ccccc23)NC(=O)[C@@H](NC(C)=O)CSSC[C@@H](C(=O)N[C@@H](CCN)C(=O)N[C@@H](CCN)C(=O)N[C@H]2CCNC(=O)[C@H]([C@@H](C)O)NC(=O)[C@H](CCN)NC(=O)[C@H](CCN)NC(=O)[C@H](CC(C)C)NC(=O)[C@@H](Cc3ccccc3)NC(=O)[C@H](CCN)NC2=O)NC(=O)[C@H](CCCN)NC(=O)[C@H](CCN)NC(=O)[C@H](Cc2ccc(O)cc2)NC(=O)[C@H](CO)NC1=O [Ex. 61] (Ac-CW[Dab][Tle]AS[dP]P[Nle]SY[Dab][Orn]C[Dab][Dab][Dab][Dab][dF]L[Dab][Dab]T; disulfide 1-14; lactam 17-C) | <1% | 0.25 µg/mL | 1 µg/mL | 8 µg/mL | 0.5 µg/mL | 1 µg/mL | 1 µg/mL | 2 µg/mL | 
